Test results as given in publication PMC10786919, “Design-rules for stapled peptides with in vivo activity and their application to Mdm2/X antagonists” (Nature Communications, 2024).
≈ marks a conversion by molar mass, not a printed value. Like-named read-outs stand apart in the source and are kept apart here. Positions of bridges follow the written chain, without caps; N, C: chain ends. Non-standard residues stand in square brackets, D forms with d. Residues, ends and D or L forms follow the SMILES beside them. Lys(N3) = [N-]=[N+]=NCCCC[C@H](N)C(=O)O; R8 = C=CCCCCCC[C@@](C)(N)C(=O)O; Cba = N[C@@H](CC1CCC1)C(=O)O; S5 = C=CCCC[C@](C)(N)C(=O)O; βAla = NCCC(=O)O

Columns and labels:
physchem [1] = test: physchem
[2] = Solubility assay (kinetic solubility, PBS pH 7); format: physicochemical; conditions: for solubility kinetic: pH 7, aqueous buffer, kinetic from dmso stock, read-out: Solubility
Method in brief: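 Quantitation uses an external standard at 100 µM, prepared from 10 mM stock in acetonitrile:methanol:DMSO (10:80:10). Solubility (µM) = (peak area of sample ÷ peak area of standard) × standard concentration.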

[3] = tested on: Jump-In T-REx CHO-K1 BLA cells; test: cells; format: cell-based; conditions: for EC50: read-out: TETCHO: Counterscreen EC50
[4] = Lactate dehydrogenase (LDH) release assay; format: cell-based
Method in brief: (§1)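 A p53 β-lactamase reporter HCT116 line, 8000 cells per well, is exposed to test compounds at 0.5% final DMSO and scored for LDH leakage.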

[5] = Experimental LogD (partition coefficient)
human Mdm2 1–125 = target: T1, human Mdm2 1–125 (Homo sapiens, UniProt Q00987); test: Mdm2 binding by competitive fluorescence anisotropy assay (FP binding); conditions: read-out: FP binding assay KD
T1 construct: GST (N); His6 (internal); TEV cleavage site (ENLYFQG) (internal); made in house; host or cells: BL21 (DE3) Rosetta T1R Escherichia coli
T1 sequence (Q00987 with tags, fused parts or gaps): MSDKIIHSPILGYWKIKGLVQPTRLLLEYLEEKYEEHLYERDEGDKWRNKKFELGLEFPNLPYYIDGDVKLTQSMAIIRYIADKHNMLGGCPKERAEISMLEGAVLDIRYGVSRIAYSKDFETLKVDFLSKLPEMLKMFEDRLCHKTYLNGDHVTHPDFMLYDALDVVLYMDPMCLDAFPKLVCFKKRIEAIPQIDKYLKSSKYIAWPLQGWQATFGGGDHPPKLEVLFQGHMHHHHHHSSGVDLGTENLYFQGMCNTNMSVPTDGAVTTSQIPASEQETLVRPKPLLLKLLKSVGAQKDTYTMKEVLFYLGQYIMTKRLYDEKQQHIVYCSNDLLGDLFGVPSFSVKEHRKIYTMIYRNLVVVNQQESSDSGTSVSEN

[6] = tested on: p53 responsive β-lactamase reporter in HCT116 cells; test: cells; format: cell-based; conditions: read-out: p53 reporter assay EC50
Method in brief: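 Read-out used the ToxBLAzer Dual Screen for β-lactamase driven by a stably integrated p53-responsive reporter. Assay: 8000 HCT116 cells per well at 0.5% final DMSO. Reported numbers are geometric means over a minimum of three biological replicates.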

[7] = tested on: panel of cancer cell lines, p53 WT or p53 deficient (null, mutant, HPV infected); format: cell-based; conditions: p53 WT vs p53 null/mutant/HPV
Source text: Amongst the cell lines used, the following lines are amongst those listed as frequently misidentified by the International Cell Line Authentication Committee: HeLa, A549, HepG2, MCF-7,LoVo, SW48,.AsPC-1,HL-60, and MIA PaCa-2. These latter lines were used in order to employ a variety of lines represented diverse cancer types and that represented different p53 status (wild-type, mutant, null, and HPV infected). Imporantly, assay ready cells were used for these experiments and PCR analysis of target short tandem repeat (STR) markers was used to authenticate cell lines prior to cell banking. Cell viabilities were determined using the CellTiter-Glo® assay kit (Promega G7558). […] Assay plates were incubated at 37 °C, 5% CO2 overnight to allow cell attachment. Following day, compounds were dispensed into the assay plate using the Tecan HPD300 system and incubated at 37 °C, 5% CO2 for 120 h. At 120 h post dose, CellTiter-Glo assay was performed according to the manufacturer’s protocol. […] Staurosporine (Selleckchem S1421) was used as a positive control for the assay.

[8] = Nanoclick permeability assay
Method in brief: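 Azido-peptide permeability was read as loss of NanoBRET signal (donor 450 nm, acceptor 610 nm) after adding NanoBret618-azide at 10 μM final.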

HCT116 cells = test: Lactate dehydrogenase (LDH) release assay; format: cell-based
Method in brief: as §1

physchem [9] = test: physchem; remark: listed apart in the source
EPSA = format: physicochemical; conditions: EPSA
[10] = tested on: CellSensor p53RE-bla HCT-116 Cell Line; conditions: 72 h
Method in brief: (§2)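 Compound dilution series (10 points, 3-fold, 10 mM top stock in DMSO) tested on overnight-plated Ca Ski cells in RPMI1640/10% FBS and on blasticidin-selected p53RE-bla HCT-116 cells in McCoy's 5A; read-out was CellTiter-Glo 2.0 luminescence after room-temperature equilibration.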

Ca Ski cell line = conditions: 72 h
Method in brief: as §2

in vitro = conditions: human, HCT116 whole cell homogenates
[11] = Fig S4
[12] = Nanoclick permeability assay EC50

SMILES	EPSA (physchem [1]) [A^2]	solubility kinetic ([2]; pH 7, PBS) [µM]	TETCHO: Counterscreen % Effect ([3]; 0% FBS 4Hr) [%]	EC50 ([3]; 0% FBS 4Hr) [µM]	EC50 ([4]; LDH: Cytotoxicity assay EC50) [µM]	EC50 ([6]; 0% FBS 4Hr) [µM]	EC50 ([6]; 0% FBS 16Hr) [µM]	Solubility ([2]; pH 7, PBS)	Partition Coeff LogD [5]	off-target proliferation effects in p53 deficient control lines [7]	Solubility [2]	EPSA (EPSA) [A^2]	cell entry EC50 [8, 12] [µM]	EC50 [10] [µM]	EC50 (Ca Ski cell line) [µM]	EC50 ([4]; LDH: Cytotoxicity assay: EC50) [µM]	half-life at 1 μM (in vitro) [h]	other results
CC(=O)N[C@@H](CO)C(=O)NCC(=O)N[C@@H](CO)C(=O)N[C@H](C(=O)N[C@@H](CO)C(=O)N[C@@H](Cc1ccccc1)C(=O)N[C@]1(C)CCCCCCC=CCCC[C@@](C)(C(N)=O)NC(=O)[C@H](CC(C)C)NC(=O)[C@H](CC(C)C)NC(=O)[C@H](C)NC(=O)[C@H](Cc2c[nH]c3ccccc23)NC(=O)[C@H](Cc2ccc(O)cc2)NC(=O)[C@H](CCC(=O)O)NC1=O)[C@@H](C)O [MP-654]	217	23 (≈ 39 µg/mL)	1.563	> 50.6	> 50	10.2	13.8											TETCHO: Counterscreen % Effect ([3]; 0% FBS 16Hr): 3.969%; EC50 ([3]; 0% FBS 16Hr): > 50 µM; logD ([5]; not stated, Partition Coeff LogD): 2.3; Kd (human Mdm2 1–125): 0.00586 µM
CC(=O)N[C@@H](CCCCN=[N+]=[N-])C(=O)N[C@H](C(=O)N[C@@H](CO)C(=O)N[C@@H](Cc1ccccc1)C(=O)N[C@]1(C)CCCCCCC=CCCC[C@@](C)(C(=O)N[C@@H](CO)C(=O)N[C@@H](C)C(=O)N[C@@H](C)C(N)=O)NC(=O)[C@H](CC2CCC2)NC(=O)[C@H](CCC(N)=O)NC(=O)[C@H](C)NC(=O)[C@H](Cc2c[nH]c3ccccc23)NC(=O)[C@H](Cc2ccc(O)cc2)NC(=O)[C@H](C)NC1=O)[C@@H](C)O [MP-703] (Ac-[Lys(N3)]TSF[R8]AYWAQ[Cba][S5]SAA-NH2; staple 5-12)	178		32.8	> 50.6	> 50	0.302	0.87	Poorly Behaved	Poorly Behaved									
CC(=O)N[C@@H](CCCCN=[N+]=[N-])C(=O)NCCC(=O)N[C@H]1CCCCNC(=O)CC[C@@H]2NC(=O)[C@@](C)(CCCCCCC=CCCC[C@@](C)(C(=O)N[C@@H](CO)C(=O)N[C@@H](C)C(=O)N[C@@H](C)C(N)=O)NC(=O)[C@H](CC3CCC3)NC(=O)[C@H](CCC(N)=O)NC(=O)[C@H](C)NC(=O)[C@H](Cc3c[nH]c4ccccc34)NC(=O)[C@H](Cc3ccc(O)cc3)NC2=O)NC(=O)[C@H](Cc2ccccc2)NC(=O)[C@H]([C@@H](C)O)NC1=O [MP-002]								Poorly Behaved	Poorly Behaved	remarkably devoid of off-target toxicity	poor behavior							cell entry EC50 [8]: 0.462 µM; EC50 ([4]; 0% FBS 4Hr, read-out: LDH: Cytotoxicity assay: EC50): > 50.7 µM; EC50 ([4]; 0% FBS 16Hr, read-out: LDH: Cytotoxicity assay: EC50): > 50.7 µM; EC50 ([4]; 10% FBS 4Hr, read-out: LDH: Cytotoxicity assay: EC50): > 50.7 µM; EC50 ([4]; 10% FBS 16Hr, read-out: LDH: Cytotoxicity assay: EC50): > 50.7 µM; LDH: Cytotoxicity assay: % Effect (HCT116 cells; 0% FBS 4Hr): -7.169%; LDH: Cytotoxicity assay: % Effect (HCT116 cells; 0% FBS 16Hr): 0.3781%; LDH: Cytotoxicity assay: % Effect (HCT116 cells; 10% FBS 4Hr): -6.533%; LDH: Cytotoxicity assay: % Effect (HCT116 cells; 10% FBS 16Hr): -11.6%; EPSA (physchem [9]): 182 A^2
CC(=O)N[C@@H](CCCCN=[N+]=[N-])C(=O)NCCC(=O)N[C@@H](CC(C)C)C(=O)N[C@H](C(=O)N[C@@H](Cc1ccccc1)C(=O)N[C@]1(C)CCCCCCC=CCCC[C@@](C)(C(=O)N[C@@H](C)C(=O)N[C@@H](C)C(=O)N[C@@H](C)C(=O)N[C@@H](C)C(=O)N[C@@H](C)C(=O)N[C@H](C)C(N)=O)NC(=O)[C@H](CC2CCC2)NC(=O)[C@H](CCC(N)=O)NC(=O)[C@H](C)NC(=O)[C@H](Cc2c[nH]c3ccccc23)NC(=O)[C@H](Cc2ccc(O)cc2)NC(=O)[C@H](CCC(=O)O)NC1=O)[C@@H](C)O [MP-464] (Ac-[Lys(N3)][βAla]LTF[R8]EYWAQ[Cba][S5]AAAAA[dA]-NH2; staple 6-13)		157 (≈ 340 µg/mL)										194	4.19	0.42	> 49.8	> 50.7	1.53	stability in serum plasma [11]: highly stable
CC1CCC(Cn2c(N3CCO[C@@H]4CCC[C@H]43)nc3cc(-c4noc(=O)[nH]4)nc(-c4cncc(Cl)c4)c32)CC1 (stereo partly drawn) [MK-4688, reference compound]										significant off-target toxicities								
CC(=O)N[C@@H](CCCCN=[N+]=[N-])C(=O)NCCC(=O)N[C@@H](CC(C)C)C(=O)N[C@H](C(=O)N[C@@H](Cc1ccccc1)C(=O)N[C@]1(C)CCCCCCC=CCCC[C@@](C)(C(=O)N[C@@H](C)C(=O)N[C@@H](C)C(=O)N[C@@H](C)C(=O)N[C@@H](C)C(=O)N[C@@H](C)C(=O)N[C@@H](C)C(N)=O)NC(=O)[C@H](CC2CCC2)NC(=O)[C@H](CCC(N)=O)NC(=O)[C@H](C)NC(=O)[C@H](Cc2c[nH]c3ccccc23)NC(=O)[C@H](Cc2ccc(O)cc2)NC(=O)[C@H](CCC(=O)O)NC1=O)[C@@H](C)O [MP-032] (Ac-[Lys(N3)][βAla]LTF[R8]EYWAQ[Cba][S5]AAAAAA-NH2; staple 6-13)								Poorly Behaved	Poorly Behaved		P.B.	194	0.708	0.96	26.6	> 50.7	0.5	
